Where two headings read alike, the source gives them in different places.
Tests used:
Aspergillus niger = test: MIC, broth tube dilution; type: cell-based; conditions: 28 ℃; for MIC: 72 h, read-out: Minimal inhibitory concentration (MIC)
From the text: (§1) In this paper, antimicrobial activities of 24 QASs were detected by quantitative tests. […] Benzalkonium chloride (BZK) and chlorhexidine acetate (CA) was selected as positive controls. Representative compound POT-C12QAS (2) which synthesised and evaluated in previous work was also taken as a reference compound in MIC, MBC and cytotoxicity tests. […]
(§2) agriculture were used as target pathogens in this study, including three strains of Gram-positive bacteria (S. Aureus, α-H-tococcus, β-H-tococcus), three strains of Gram-negative bacteria (E. coli, P. aeruginosa, Proteus vulgaris) and four strains of fungi (Canidia albicans, Cytospora mandshurica, Physalospora piricola, Aspergillus niger). The antimicrobial tests were assayed, according to standard CLSI methods for antimicrobial dilution susceptibility tests to measure the minimum inhibitory concentration (MIC) and minimum bactericidal concentration (MBC)2.
(§3) A broth tube dilution method was followed to determine the MIC values for all the screened compounds against the micro-organisms, and for comparison benzalkonium chloride (BZK) and chlorhexidine acetate (CA) was used as a reference. For sample preparation, each of the test compounds and reference were dissolved in DMSO or sterile water at a concentration of 1600 μg/mL, and further dilutions of the compounds and reference in culture medium MHB (Muller-Hinton Broth) were prepared at the required quantities of 400, 200, 100 etc., down to 0.39 μg/mL. Bacterial strains and fungal strains were maintained on MHA (Muller-Hinton Agar) medium at 37℃ or 28 ℃ for 12 h or 72h, respectively. The microbial inocula were prepared by suspension in 10 mL of culture medium for colonies from culture on MHA. The cell density of each inoculum was adjusted in culture medium of a 0.5 McFarland standard (1-2×10^8 CFU/mL). The final amount applied was 10^5 CFU/mL for bacteria and fungi. The microbial inocula were added to the twofold diluted samples. One growth control tube was prepared […] the addition of the compound and one blank tube was prepared without the addition of the microorganism. MIC values were read after incubation at 37℃ or 28 ℃ for bacterial and fungal strains, respectively. After 12 h or 72h, the last tube with no growth of micro-organisms was recorded to represent the MIC value expressed in μg/ml. All experiments were carried out three times. […]

Canidia albicans = test: MIC, broth tube dilution; type: cell-based; conditions: 28 ℃; for MIC: 72 h, read-out: Minimal inhibitory concentration (MIC)
From the text: as §1, §2, §3

Cytospora mandshurica = test: MIC, broth tube dilution; type: cell-based; conditions: 28 ℃; for MIC: Cytospora, 72 h, read-out: Minimal inhibitory concentration (MIC)
From the text: as §1, §2, §3

E. coli = test: MIC, broth tube dilution; type: cell-based; conditions: 37℃, 12 h; for MIC: Escherichia coli, read-out: Minimal inhibitory concentration (MIC)
From the text: as §1, §2, §3

P. aeruginosa = test: MIC, broth tube dilution; type: cell-based; conditions: 37℃, 12 h; for MIC: Pseudomonas aeruginosa, read-out: Minimal inhibitory concentration (MIC)
From the text: as §1, §2, §3

Physalospora piricola = test: MIC, broth tube dilution; type: cell-based; conditions: 28 ℃; for MIC: 72 h, read-out: Minimal inhibitory concentration (MIC)
From the text: as §1, §2, §3

Proteus vulgaris = test: MIC, broth tube dilution; type: cell-based; conditions: 37℃, 12 h; for MIC: read-out: Minimal inhibitory concentration (MIC)
From the text: as §1, §2, §3

S. aureus = test: MIC, broth tube dilution; type: cell-based; conditions: 37℃, 12 h; for MIC: Staphylococcus aureus, read-out: Minimal inhibitory concentration (MIC)
From the text: as §1, §2, §3

α-H-tococcus = test: MIC, broth tube dilution; type: cell-based; conditions: 37℃, 12 h; for MIC: read-out: Minimal inhibitory concentration (MIC)
From the text: as §1, §2, §3

β-H-tococcus = test: MIC, broth tube dilution; type: cell-based; conditions: 37℃, 12 h; for MIC: read-out: Minimal inhibitory concentration (MIC)
From the text: as §1, §2, §3

[1] = tested on: human immortalised epidermal (HaCat) cell line; test: Cytotoxicity, MTT assay; type: cell-based
Protocol: (§4) These six series of antimicrobial compounds may be applied to daily or clinical disinfectants for unbroken skin and trauma, or agricultural fungicides alternatively. Thus, their cytotoxicity for skin or body tissues are crucial. In this study, the cytotoxicity of target compounds was evaluated for human immortalised epidermal (HaCat) and human normal liver (LO2) cell line using MTT assay. […] The IC50 values of 5a, 6a, 10a, 16a, 16 b were about more than 50 μg/mL for LO2 and HaCat.
(§5) Cytotoxicity Testing with MTT Method
(§6) Human immortalized epidermal cells (HaCat) line were cultured in Dulbecco’s modified Eagle’s medium containing 10% fetal bovine serum, 1% penicillin, and 1% streptomycin at 37°C in a 5% CO2/95% air incubator MCO-15AC (SANYO). Human normal liver cells (LO2) line were cultured in Roswell Park Memorial Institute medium containing 10% fetal bovine serum, 1% penicillin, and 1% streptomycin at 37°C in a 5% CO2/95% air incubator MCO-15AC (SANYO). HaCat or LO2 cells in 96-well plate were adjusted to 1.0 × 10^5 cells mL-1 and cells were passed and cell supernatant was pour out before plating on glass slide at 37°C, 5% CO2 for 24 h. Cells were pretreated with 100 μL QAS for 24 h and cell supernatant with QAS was pour out and washed with PBS buffer system. Then, the cells were treated with the MTT solution (MTT, 3-(4,5-dimethythiazol-2-yl)-2,5-diphenyl-tetrazolium bromide, 20 μL, 5 mg/mL) for 4 h. The dark blue formazan crystal formed in the intact cells was solubilized with dimethyl sulfoxide, and absorbance at 570 nm was measured with a microplate reader (Multiskan MK3-Thermo Labsystems, USA). The results were expressed as percentage of the control value from the normal cells without treatments of QAS. […]

[2] = tested on: human normal liver (LO2) cell line; test: Cytotoxicity, MTT assay; type: cell-based
Protocol: as §4, §5, §6

Cytotoxicity, MTT assay = type: cell-based, human; conditions: human, MTT, 24 h
Protocol: as §4, §5, §6

[3] = LO2 human normal liver cells, LO2 cells

Molecule | MIC (Aspergillus niger) [µg/mL] | MIC (Canidia albicans) [µg/mL] | MIC (Cytospora mandshurica) [µg/mL] | MIC (E. coli) [µg/mL] | MIC (P. aeruginosa) [µg/mL] | MIC (Physalospora piricola) [µg/mL] | MIC (Proteus vulgaris) [µg/mL] | MIC (S. aureus) [µg/mL] | MIC (α-H-tococcus) [µg/mL] | MIC (β-H-tococcus) [µg/mL] | IC50 at 24 h (Cytotoxicity, MTT assay; HaCat cells) [µg/mL] | IC50 at 24 h (Cytotoxicity, MTT assay; [3]) [µg/mL] | other results
Benzalkonium chloride [BZK, reference compound] | – | – | – | – | – | – | – | – | – | – | – | – | Minimal inhibitory concentration (MIC) (Aspergillus niger; 72h): 3.125 µg/mL; Minimal inhibitory concentration (MIC) (Canidia albicans; 72h): 12.5 µg/mL; Minimal inhibitory concentration (MIC) (Cytospora mandshurica; 72h): 6.25 µg/mL; Minimal inhibitory concentration (MIC) (E. coli): 25 µg/mL; Minimal inhibitory concentration (MIC) (P. aeruginosa): 25 µg/mL; Minimal inhibitory concentration (MIC) (Physalospora piricola; 72h): 3.125 µg/mL; Minimal inhibitory concentration (MIC) (Proteus vulgaris): 25 µg/mL; Minimal inhibitory concentration (MIC) (S. aureus): 3.125 µg/mL; Minimal inhibitory concentration (MIC) (α-H-tococcus): 3.125 µg/mL; Minimal inhibitory concentration (MIC) (β-H-tococcus): 1.56 µg/mL; Cytotoxicity IC50 [1]: 3.19 ± 0.26 µg/mL; Cytotoxicity IC50 [2]: 2.12 ± 0.43 µg/mL
C[N+](CCO)(CCO)CCCCCCCCSc1nnc(-c2ccc(C(F)(F)F)cc2)o1 [Compound 6b] | 12.5 | 25 | 12.5 | 25 | 50 | 3.12 | 50 | 25 | 12.5 | 12.5 | > 25 | > 25 | Cytotoxicity IC50 ([1]; HaCat cells, MTT, 24 h): 32.57 ± 2.69 µg/mL; Cytotoxicity IC50 ([2]; LO2 cells, MTT, 24 h): 38.72 ± 2.92 µg/mL
C[N+](CCO)(CCO)CCCCCCSc1nnc(-c2ccc(C(F)(F)F)cc2)o1 [Compound 6a] | 25 | 50 | 12.5 | 50 | 100 | 6.25 | 100 | 50 | 50 | 25 | > 50 | > 50 | –
C[N+](CCO)(CCO)CCCCCCSc1nnc(-c2ccc(F)cc2)o1 [Compound 5a] | 50 | 50 | 50 | 100 | 100 | 12.5 | 100 | 100 | 50 | 25 | > 50 | > 50 | –
C[N+](CCO)(CCO)CCCCCCCCCCSc1nnc(-c2ccc(F)cc2)o1 [Compound 5c] | 25 | 25 | 12.5 | 25 | 50 | 3.12 | 50 | 25 | 12.5 | 6.25 | 19.4 ± 1.23 | 23.9 ± 1.68 | –
